The values that follow come from patent US8889375B2, “Hypoglycemic effect enhancer” (Biofermin Pharmaceutical Co., Ltd., priority 2009, dated 2014).

In assay [1] the test system is KK-A^y mice. The experiment in a line: Oral glucose tolerance test (OGTT) after 6-week feeding of the test diet (Example 2). The assay is classed as in vivo, mouse. From the text: (§1) As the voglibose, BASEN (registered trade name) tablets 0.2 (made by Takeda Pharmaceutical Company Ltd.) were crushed and used. Female KK-A^y mice (strain name KK-A^y/TaJcl) at 8 weeks old were purchased (from CLEA Japan, Inc.) and preliminarily reared in separate cages for 2 weeks. A KK-A^y mouse is a diabetic model mouse. In the preliminary rearing, free access to a commercial powder diet (trade name: CE-2, made by CLEA Japan, Inc.) and tap water was provided. On the first day of the experiment, the oral glucose tolerance test (OGTT) was conducted. That is, to the mice kept fasted from the previous day, a glucose solution ((2 g in 5 mL)/kg) was orally administered. […] Accu-Check Aviva, made by Roche Diagnostics). The area under the blood concentration-time curve (AUC) was calculated, and based on the AUC, the mice were divided into the following 4 groups […] mice/group). The grouped mice were given free access to the test diet. Group A: a group fed with CE-2 containing 10% dextrin. […] Group C: a group fed with CE-2 containing 10% dextrin and 0.0003% voglibose. […] Each group was fed with the test diet for 2 weeks as above, fasted overnight, and then measured for fasting glucose level with use of Accu-Check Aviva. […] The significant difference of each group from Group A was evaluated using Durmett's test, and the significant difference between 2 groups was evaluated using t-test.

Assay [2] relates to KK-A^y mice. The assay is described as follows: Fasting blood glucose level after 2-week feeding of the test diet (Example 2). Format: in vivo, mouse. The conditions noted are these: 2-week feeding of test diet (10% BBG9-1 dried cells and/or 0.0003% voglibose in CE-2), fasted overnight, FIG. 1.
Source text: as §1

In another assay the test system is GK rats. The conditions noted are these: 9-week dietary administration, 0.005%: 4.1 mg/kg·day; cited from earlier work.

Take `OCC(CO)N[C@H]1C[C@](O)(CO)[C@@H](O)[C@H](O)[C@H]1O` [voglibose, 1L(1S)-(1(OH),2,4,5/1,3)-5-[[2-hydroxy-1-(hydroxymethyl)-ethyl]amino]-1-C-(hydroxymethyl)-1,2,3,4-cyclohexane tetrol]: the glucose tolerance result in the assay on KK-A^y mice [1] (6-week dietary administration, voglibose 0.0003%: 0.6 mg/kg·day) is “did not improve the glucose tolerance”; with GK rats, “improved the glucose tolerance”. Moreover, the “blood glucose level in the OGTT after glucose loading” value with KK-A^y mice [1] (6-week feeding (10% BBG9-1 dried cells and/or 0.0003% voglibose in CE-2), glucose 2 g/kg oral, FIG. 2) is recorded as “neither BBG9-1 alone nor voglibose alone inhibited the increase in the blood glucose level”. In addition, in the assay on KK-A^y mice [2], the “fasting blood glucose level” value was “neither BBG9-1 alone nor voglibose alone decreased the fasting blood glucose level”.
